Ends that are not written are not given here. Peptide text beside a SMILES is read from it. * marks the point of attachment. Cbz = O=C(OCc1ccccc1)*; CH2F = FC*

The subject of one data set is LNCaP cell culture.
Experiment: not given
The data set is classed as cell-based.
Conditions: not given
An excerpt: In one non-limiting example, Peptide A-8R [SEQ ID NO: 1] can be truncated to a smaller peptide that retains the same type of biological activity profile. In certain embodiments, truncating Peptide A-8R [SEQ ID NO: 1] results in greater potency upon conversion of some of the pharmacophore functionalities to peptidomimetic groups that can, in turn, enhance key interactions by lowering the net binding energy. In one experiment, Peptide A-8R [SEQ ID NO: 1] was divided into two parts, using the central proline residue as the division point. […] A minimum number of amino acids desired for cytotoxicity was then identified. […] The following Peptide A truncated and derivative probes were synthesized and evaluated for their effect on cytotoxicity after 3- and 6-day exposures:
The following table lists cell culture data for truncated Peptide A peptides. The amino acid sequences and IC50 values in μM concentrations depict cytotoxicity after 3- and 6-day exposures (“NotA” means not active). “8R” [SEQ ID NO: 6] signifies that 8 arginines are present on the carboxy terminus to mediate membrane translocation. The data has shown that the 8R terminus [SEQ ID NO: 6] can be either as the free carboxy (—OH) or amide (—NH2) with no alteration of permeation or observed activity.
The table below lists LNCaP cell culture data for various Peptide A derivatives, displaying the observed IC50 values in μM concentrations after 3- and 6-day exposures.
Regarding `C[C@H](NC(=O)[C@H](CCCCN)NC(=O)[C@H](CS)NC(=O)[C@@H](N)Cc1ccccc1)C(=O)O` [FA4, FCKA] (H-FCKA-OH), the “cytotoxicity / activity in cells (in words)” value (“cytotoxicity / activity” below) is reported as “diminished but yet still significant cytotoxicity”.
On the same count and under the same terms, under `C[C@@H](O)[C@H](N)C(=O)N[C@@H](Cc1ccccc1)C(=O)N[C@@H](CS)C(=O)O` [TC3, TFC] (H-Thr-Phe-Cys-OH) stands “diminished but yet still significant cytotoxicity”.
ACKAFRRRRRRRR-NH2 [AF5-8R]: the Cytotoxicity entry is reported as “Yes”.
Regarding CKAFRRRRRRRR-NH2 [Peptide CF4-8R], the Cytotoxicity entry is “Yes” and the “cytotoxicity / activity” value is listed as “lower-level activities retained”.
The matching figures for FAKAFRRRRRRRR-NH2 [Peptide FF5-C2A-8R]: “Yes” and “dramatically reduced activity”.
With FCAAFRRRRRRRR-NH2 [FF5-K3M-8R], the Cytotoxicity entry is recorded as “Yes”.
The same measure, in the same setting: in the case of FCKAARRRRRRRR-NH2 [FA5-8R] it was “Yes”; in that of FCKAF [FF5-OH, FCKAF], “No”.
As for FCKAF [FF5], the “cytotoxicity / activity” value was “inactive”.
Turning to FCKAF-NH2 [FF5-NH2, FCKAF], the Cytotoxicity entry is “No”.
Consider FCKAFPRRRRRRRR-NH2 [Peptide FP6-8R], for which the Cytotoxicity result is “Yes”.
On the same count and under the same terms, under FCKAFRRRRRRRR-NH2 [Peptide FF5-8R] stands “Yes”.
Take FCKARRRRRRRR [Peptide FA4-8R]: the Cytotoxicity entry is listed as “Yes” and the “cytotoxicity / activity” value is “lower-level activities retained”.
The matching figures for FMKAFRRRRRRRR-NH2 [Peptide FF5-C2M-8R]: “Yes” and “significant activity was retained”.
On to KAFPFHRRRRRRRR [Peptide KH6-8R], for which the Cytotoxicity entry is “No”.
Consider KAFPRRRRRRRR [Peptide KP4-8R], for which the Cytotoxicity result is recorded as “No”.
For the compound PFHII [PI5, PFHII], the “cytotoxicity / activity” value was “no activity”.
Regarding PFHIIRRRRRRRR-NH2 [Peptide PI5-8R], the Cytotoxicity result is listed as “No”.
Consider TFCKAFP [TP7, TFCKAFP], for which the “cytotoxicity / activity” value was “retained cytotoxicity”.
Regarding TFCKAFPRRRRRRRR-NH2 [Peptide TP7-8R], the Cytotoxicity result is on record as “Yes”.
In the case of TFCKAFRRRRRRRR-NH2 [Peptide TF6-8R], the Cytotoxicity entry is reported as “Yes” and the “cytotoxicity / activity” value is listed as “quite comparable”.
The like results for TFCRRRRRRRR [Peptide TC3-8R] were, in that order, “Yes” and “lower-level activities retained”.

Another data set relates to p53 transcriptional activity. The data set is described as follows: p53-Luc reporter assay, sGCα1-mediated repression of p53 transcriptional activity in LNCaP cells. The data set is classed as cell-based. Particulars: 100 nM of drug. An excerpt:
FIGS. 1A-1F: Over-expression of sGCα1 inhibits p53 transcriptional activity. p53 activity was quantified by measuring luciferase activity. Bar graphs represent the average of three independent experiments plus standard deviation. All cells received the same amount of transfected expression plasmid and that pCH110 was used to control transfection efficiency.
FIGS. 2A-2F: The sGCα1-mediated repression of p53 transcriptional activity is independent of mediators of NO signaling and guanylyl cyclase activity. Androgen-dependent LNCaP cells were transfected with 0.5 μg pCH110, 0.1 μg p53-Luc reporter plasmid, and subjected to different treatments:
FIG. 2A: Cells were transfected with 0.5 μg pCH110, 0.1 μg p53-Luc reporter plasmid, and subjected to […] ODQ.
FIG. 2C: Cells were treated with different concentrations of C-PTIO.
FIG. 2D: Cells were treated with different concentrations of SNP.
FIG. 2E: Cells were treated with different concentrations of 8-Br-cGMP.
(§1) To determine whether nitric oxide (NO) signaling is involved in sGCα1-mediated repression of p53 transcriptional activity, NO interfering drugs were used.
Supporting this finding, the NO donor SNP had no effect (FIG. 2D).
(In a reporter assay the amount or activity of a reporter protein is the signal.)
As for `CC1(C)N([O])C(c2ccc(C(=O)O)cc2)=[N+]([O-])C1(C)C` [C-PTIO], the p53 activity entry is reported as “inhibit p53 activity”.

Staying with this data set, now noted: 5 or 50 mM ODQ.
`O=c1onc2cnc3ccccc3n12` [ODQ]: the “effect on sGCα1-mediated repression of p53” value is given as “no effect”.

Staying with this data set, now noted: different concentrations.
For `Nc1nc2c(nc(Br)n2[C@@H]2O[C@@H]3COP(=O)(O)O[C@H]3[C@H]2O)c(=O)[nH]1` [Peptide 8-Br-cGMP, 8-Br-cGMP], the p53 transcriptional activity entry was “weakly enhanced”.

The next data set deals with sGC (Homo sapiens, UniProt Q02153). As to the kind of experiment: sGC-catalyzed cGMP synthesis (data not shown). Conditions: the two ODQ concentrations. It is filed as biochemical.
Chain of sGC (Q02108 whole entry partner): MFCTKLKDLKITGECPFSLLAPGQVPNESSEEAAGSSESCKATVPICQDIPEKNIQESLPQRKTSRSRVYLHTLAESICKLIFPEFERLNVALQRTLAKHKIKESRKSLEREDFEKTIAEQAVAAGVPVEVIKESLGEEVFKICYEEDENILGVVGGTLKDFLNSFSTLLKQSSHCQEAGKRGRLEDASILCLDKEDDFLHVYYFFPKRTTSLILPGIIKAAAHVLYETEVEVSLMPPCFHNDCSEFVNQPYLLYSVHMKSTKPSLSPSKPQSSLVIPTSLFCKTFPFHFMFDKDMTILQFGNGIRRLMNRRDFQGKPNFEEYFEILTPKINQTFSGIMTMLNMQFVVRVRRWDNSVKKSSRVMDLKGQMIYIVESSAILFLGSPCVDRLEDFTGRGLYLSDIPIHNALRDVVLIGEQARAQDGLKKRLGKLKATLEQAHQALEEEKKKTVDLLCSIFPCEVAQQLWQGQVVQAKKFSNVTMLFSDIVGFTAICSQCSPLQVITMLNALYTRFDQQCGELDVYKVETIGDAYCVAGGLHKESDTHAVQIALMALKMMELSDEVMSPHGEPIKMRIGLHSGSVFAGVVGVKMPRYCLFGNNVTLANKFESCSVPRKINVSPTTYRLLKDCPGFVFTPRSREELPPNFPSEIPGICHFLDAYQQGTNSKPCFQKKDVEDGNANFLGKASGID
Chain of sGC (Q02153 whole entry): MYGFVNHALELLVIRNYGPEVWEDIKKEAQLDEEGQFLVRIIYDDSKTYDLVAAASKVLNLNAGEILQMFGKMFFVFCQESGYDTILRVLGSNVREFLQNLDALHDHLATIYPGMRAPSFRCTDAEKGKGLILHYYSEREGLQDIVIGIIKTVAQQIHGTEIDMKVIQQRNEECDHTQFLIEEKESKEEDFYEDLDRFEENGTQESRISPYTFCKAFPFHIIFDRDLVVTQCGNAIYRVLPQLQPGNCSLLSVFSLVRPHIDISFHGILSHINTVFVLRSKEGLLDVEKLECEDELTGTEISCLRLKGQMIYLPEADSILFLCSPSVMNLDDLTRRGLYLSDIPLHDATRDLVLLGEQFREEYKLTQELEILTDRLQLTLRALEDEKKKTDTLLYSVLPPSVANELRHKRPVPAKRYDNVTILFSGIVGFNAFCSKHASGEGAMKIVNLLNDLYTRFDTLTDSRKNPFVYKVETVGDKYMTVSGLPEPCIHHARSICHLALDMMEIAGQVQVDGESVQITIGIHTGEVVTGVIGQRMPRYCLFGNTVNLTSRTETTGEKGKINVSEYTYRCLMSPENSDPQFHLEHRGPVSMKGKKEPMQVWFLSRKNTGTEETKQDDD
From the text: as §1
For `O=c1onc2cnc3ccccc3n12` [ODQ], the “sGC-catalyzed cGMP synthesis” value is given as “strongly inhibited”.

Another data set relates to MDM2. The data set is described as follows: Western blotting of MDM2 in LNCaP nuclear and cytosolic extracts. The data set is classed as cell-based. Particulars: LNCaP cells. The protocol: FIG. 4B: Nuclear (N) and cytosolic (C) extracts were prepared from LNCaP cells and Western blotting was used to measure protein levels of MDM2, p53, JAB1, and sGCα1. β-actin was used as loading control.
LNCaP cells were infected with an sGCα1-expressing adenovirus or control empty virus and p53 subcellular localization was measured by Western blotting following cell fractionation.
Background: In western blotting, separated proteins are transferred to a membrane and probed.
As to `CC(C)C[C@@H](C=O)NC(=O)[C@H](CC(C)C)NC(=O)[C@H](CC(C)C)NC(=O)OCc1ccccc1` [MG132] (Cbz-Leu-Leu-Leu-aldehyde), the MDM2 cytoplasmic levels entry was “significantly enhanced”.

The next data set has as its system LNCaP cells. As to the kind of experiment: LNCaP cell viability with etoposide, MTT assay. It is filed as cell-based. Conditions: 10 μM etoposide, two days. The protocol:
FIG. 7B: Over-expression of sGCα1 protects prostate cancer cells from the lethal effects of etoposide. LNCaP cells were infected with control empty adenovirus (−sGCα1; 20 MOI) or sGCα1-expressing adenovirus (+sGCα1; 2 or 20 MOI) and treated with 10 μM etoposide. After two days of incubation, cell number was quantified by MTT assay. Bar graphs represent averages of three independent experiments plus standard deviations. All activities are relative to the first condition, and this activity was set to 100%.
LNCaP cells were infected with an sGCα1-expressing adenovirus and treated with etoposide, an inducer of apoptosis. […] This finding, together, with the PCR array data showing that sGCα1 can regulate Survivin expression, is consistent with results showing that Survivin desensitizes prostate cancer cells to etoposide.
In general terms: Tetrazolium assays rely on reduction of a dye to a coloured formazan, in cell work by metabolically active cells.
As to `COc1cc([C@@H]2c3cc4c(cc3[C@@H](O[C@@H]3O[C@@H]5CO[C@@H](C)O[C@H]5[C@H](O)[C@H]3O)[C@H]3COC(=O)[C@H]23)OCO4)cc(OC)c1O` [Etoposide], the “viability of LNCaP cells” value was “significantly reduced”.

The next data set relates to sGCα1. As to the kind of experiment: Western blotting of sGCα1 expression in VCaP cells. Particulars: 1 nM R1881. It is filed as cell-based. The protocol:
FIG. 11A: VCaP cells were treated with or without 1 nM R1881 and Western blotting was used to measure expression of sGCα1. β-actin was used as a loading control.
In the case of `C[C@]1(O)CC[C@H]2[C@@H]3CCC4=CC(=O)CCC4=C3C=C[C@@]21C` [Peptide R1881, R1881], the sGCα1 protein expression result is listed as “significantly induced”.

Another data set deals with LNCaP cells.
Experiment: not given
It is filed as cell-based. Conditions: increasing concentration of peptide, days; with or without 1 nM R1881. The protocol:
FIG. 12B: LNCaP cells were grown without androgen for 2 or 4 days in the presence of increasing concentration of Peptide A-8R [SEQ ID NO: 1] (upper left), Peptide B-8R [SEQ ID NO: 2] (upper right), Peptide C-8R [SEQ ID NO: 3] (lower left), or Peptide D-8R [SEQ ID NO: 4] (lower right). The MTT reagent was used to measure cell density.
FIG. 13A: LNCaP cells were grown with (Right) or without (Left) 1 nM androgen ([…]) for 3 or 6 days in the presence of increasing concentration of Peptide A-8R [SEQ ID NO: 1] or vehicle (70% DMSO). The MTT reagent was used to measure cell density.
FIG. 13B: LNCaP cells were grown with (Right) or without (Left) 1 nM androgen (R1881) for 3 or 6 days in the presence of increasing concentration of Peptide C-8R [SEQ ID NO: 3] or vehicle and then cell density was measured.
FIG. 14A: LNCaP cells were grown with (Right) or without (Left) 1 nM R1881 for 3 or 6 days in the presence of increasing concentration of Peptide A or vehicle and then cell density was measured.
FIG. 14B: LNCaP cells were grown with (Right) or without (Left) 1 nM R1881 for 3 or 6 days in the presence of increasing concentration of Peptide A-8R [SEQ ID NO: 1] or vehicle and then cell density was measured.
FIG. 15A: LNCaP cells were grown for 1-8 hrs in the presence of 10 μM Peptide A-8R [SEQ ID NO: 1] or vehicle and then cell density was measured.
FIG. 19C: LNCaP cells were grown with for 12 or 48 hrs in the presence of increasing concentration of Peptide A-8R [SEQ ID NO: 1] (Left) or PeptideA-8R-Biotin [SEQ ID NO: 1] (Right) and then cell density was measured.
Each peptide contained 8 arginines at the C-terminus, a sequence which is known to mediate plasma membrane translocation and cellular internalization.
To measure how rapid the cytotoxic effect of Peptide A-8R [SEQ ID NO: 1] occurs, LNCaP cells were treated with 10 μM peptide and incubated for 1-8 hrs. […] Using the same conditions, C81 cells were used to study the peptide effect on hormone-refractory prostate cancer cells.
For Ac-LRLKGQMIYLRRRRRRRR-OH [Peptide B-8R], the “effect on LNCaP cell growth / cytotoxicity (in words)” value is “stopped the growth”.
Still for that read-out and setting: under Ac-PLHDATRDLVRRRRRRRR-OH [Peptide C-8R] stands “no effect”.
Same read-out and setting: under Ac-TFCKAFPFHII [Peptide A] stands “no effect”.

For another data set, the system named is LNCaP cells. The data set is described as follows: Relief of Peptide A-8R cytotoxicity by pan-caspase inhibitor in LNCaP cells. The data set is classed as cell-based. Particulars: 40 mM Z-VAD-FMK, 4 hrs. The protocol: FIG. 18B: LNCaP cells were grown for 4 hrs in the presence of increasing concentration of Peptide A-8R [SEQ ID NO: 1] with or without […] Z-VAD-FMK and then cell density was measured.
To determine if the cytotoxicity of Peptide A-8R [SEQ ID NO: 1] is through apoptosis, LNCaP cells were monitored for Caspase 3/7 activity. […] Thus, Peptide A-8R [SEQ ID NO: 1] was able to induce Caspase 3/7 activity much faster than the well-studied apoptosis-inducing drug Etoposide. To confirm that the Peptide was killing cells via apoptosis, the inventors used the pan-caspase inhibitor Z-VAD-FMK.
As for `COC(=O)C[C@H](NC(=O)[C@H](C)NC(=O)[C@@H](NC(=O)OCc1ccccc1)C(C)C)C(=O)CF` [Z-VAD-FMK] (Cbz-Val-Ala-Asp(OMe)-CH2F), the “effect on Vehicle-treated cells” value is “no significant effect”.

Staying with this data set, now noted: pretreatment with 40 mM Z-VAD-FMK, peptide up to 50 μM, 4 hrs.
In the case of `COC(=O)C[C@H](NC(=O)[C@H](C)NC(=O)[C@@H](NC(=O)OCc1ccccc1)C(C)C)C(=O)CF` [Z-VAD-FMK] (Cbz-Val-Ala-Asp(OMe)-CH2F), the “relief of the Peptide A-8R cytotoxic effect” value is reported as “complete relief”.

These data come from US9546196B2, “Compositions and methods of treatment of cancers” (The University of Toledo, priority 2009, dated 2017).
